Data reported in publication PMC9763333, “In vitro characterization of immune modulating drug-eluting immunobeads towards transarterial embolization in cancer” (Scientific Reports, 2022).
“And” between values parts separate entries of the source, which are not always exact repeats. Equal values may be shown once. Read-outs that look alike come from different tables or passages of the source. Values belong to the compound of their own block, whether it stands above or below them.

Columns and labels:
[1] = parameters: method as in PMID 28188808; conditions: 0.08 mmol irinotecan; cited from earlier work
[2] = Drug solubilization by salt formation in acid; assay type: physicochemical; conditions: T in °C in parentheses in the cell (20.1 or 21.1)
Experimental: The base form of each drug was suspended in deionized water and titrated with 0.1 N hydrochloric acid (Fisher Scientific, Hampton, NH) while stirring until all the base was solubilized and the volume adjusted to a final concentration of 2.5 mg/mL. The resulting solution was frozen, then lyophilized to yield solid drug-hydrochloride salt or used in its solubilized form for loading into DC Bead LUMI. […] Doxorubicin.HCl was readily solubilized and used without modification. […] A ZORBAX Eclipse Plus C8 reversed-phase column (Agilent) and UV detector at wavelength of 230 nm were used for GS-9620 analysis. The decomposition product of GS-9620 was analyzed with reversed phase high-performance liquid chromatography (Rp-HPLC) and LC/MS.

[3] = Drug loading into DC Bead LUMI; assay type: physicochemical; conditions: for Relative percent drug loaded in DC Bead LUMI over time: listed as DSR; for Relative percent drug loaded (maximum, percent of SO3− available on a molar basis): mean (n = 3)
Experimental: DC Bead LUMI was analyzed for its elemental composition by MEDAC Inc. […] Drug loading was performed in triplicate as previously reported[45] with slight modifications. […] Washing of beads is often a critical step in drug release studies as any drug left unbound to the beads affects the release profile and exaggerates the early burst release. […] However, washing was discontinued for TLR drugs as drug was continually observed even after multiple washes. […] The amount of drug loaded at the specified time points was calculated by subtracting the amount of drug remaining from the initial amount of drug in the loading solution and the cumulative amount of drug withdrawn for sampling. The maximum drug loaded in the beads was calculated once no further change in the concentration in the loading solution could be measured and before washing the beads. The relative percent drug loaded was defined as the maximum amount of drug loaded as a percent of the amount of SO3^- ions available in the beads on a molar basis using the following formula and the results are presented as the mean ± SD.

[4] = Washing of drug-loaded beads with deionized water and microscopic appearance; assay type: physicochemical
Experimental: Drug loading was performed in triplicate as previously reported[45] with slight modifications. […] Washing of beads is often a critical step in drug release studies as any drug left unbound to the beads affects the release profile and exaggerates the early burst release. […] However, washing was discontinued for TLR drugs as drug was continually observed even after multiple washes. […] The amount of drug loaded at the specified time points was calculated by subtracting the amount of drug remaining from the initial amount of drug in the loading solution and the cumulative amount of drug withdrawn for sampling. The maximum drug loaded in the beads was calculated once no further change in the concentration in the loading solution could be measured and before washing the beads. The relative percent drug loaded was defined as the maximum amount of drug loaded as a percent of the amount of SO3^- ions available in the beads on a molar basis using the following formula and the results are presented as the mean ± SD.

[5] = Drug release from DC Bead LUMI in saline; assay type: physicochemical; conditions: for release in saline from DC Bead LUMI after multiple washes in deionized water: single replicates, listed as DSR
Experimental: […] Briefly, drug-loaded DC Bead LUMI or LC Bead (62.5 µL) were placed in vessels with 50 mL of saline ([…], pH 7.4) and were agitated with upright rocking motion at a set maximum rocking speed of 10 (70 rpm) for 144 h at 37 °C using Ward's® Rotating Mixer. At scheduled time intervals identical to the loading time points, 1 mL of release media was withdrawn and used for drug quantification. To maintain 50 mL total elution volume, 1 mL of fresh saline pre heated to 37 °C was replaced at each timepoint. […] 2.4. The cumulative amount of drug released at each time point was calculated by multiplying the concentration of each sample aliquot by the total volume (50 mL) of release media and adding the sum of the amount of drug removed for sampling at prior time points. […] The 50 mL volume was chosen to ensure infinite sink conditions where the maximum possible concentration of eluted drug would be at least 10 times more dilute than the maximum solubility. This ensures the rate of release is not affected by solution concentration but is only a function of interactions of the bead, drug, and saline.

[6] = pKa measurement by triple titration in methanol–water co-solvent with Yasuda-Shedlovsky extrapolation; assay type: physicochemical; conditions: for pKa: methanol–water co-solvent, aqueous value by Yasuda-Shedlovsky extrapolation; for psKa1 / psKa2 / psKa3: methanol–water
Experimental: pKa measurements were performed by Pion Inc, UK Ltd using known methods as previously reported[47]–[50] or calculated by using software MoKa (Molecular Discovery, Borehamwood, Hertfordshire, UK, https://www.moldiscovery.com/software/moka/#references) or directly obtained from the literature. For GARD and DSR 6434, a triple titration was carried out under methanol–water co-solvent conditions from pH 2.0–12.0 at concentrations of 2.3–1.3 mM (the methanol mixing ratio varied from 49.0 to 28.9% w/w) and 1.5–0.9 mM (the methanol mixing ratio varied from 49.6 to 29.1% w/w), respectively.

SMILES: CCc1c2c(nc3ccc(OC(=O)N4CCC(N5CCCCC5)CC4)cc13)-c1cc3c(c(=O)n1C2)COC(=O)[C@]3(O)CC [irinotecan]
time to load drug to DC Bead LUMI [1]: ≤ 10 min

pH at which each drug dissolved for loading [2]: 1.65 (20.1)
Relative percent drug loaded in DC Bead LUMI over time ([3]; 5 min, single replicates): 39.5677% and 47.7348% and 48.9285%
Relative percent drug loaded in DC Bead LUMI over time ([3]; 15 min, single replicates): 41.6488% and 50.8205% and 51.9687%
Relative percent drug loaded in DC Bead LUMI over time ([3]; 30 min, single replicates): 42.6689% and 54.1338% and 55.2332%
Relative percent drug loaded in DC Bead LUMI over time ([3]; 45 min, single replicates): 48.2468% and 57.0357% and 58.0924%
Relative percent drug loaded in DC Bead LUMI over time ([3]; 60 min, single replicates): 49.3314% and 55.3694% and 56.4506%
Relative percent drug loaded in DC Bead LUMI over time ([3]; 120 min, single replicates): 50.4129% and 60.3547% and 61.3625%
Relative percent drug loaded in DC Bead LUMI over time ([3]; 180 min, single replicates): 49.4039% and 56.8373% and 57.8969%
Relative percent drug loaded in DC Bead LUMI over time ([3]; 240 min, single replicates): 49.4386% and 53.9704% and 55.0722%
Relative percent drug loaded in DC Bead LUMI over time ([3]; 300 min, single replicates): 48.7119% and 56.2576% and 57.3257%
Relative percent drug loaded in DC Bead LUMI over time ([3]; 360 min, single replicates): 47.0211% and 54.6141% and 55.7064%
Relative percent drug loaded in DC Bead LUMI over time ([3]; 420 min, single replicates): 47.0555% and 55.952% and 57.0246%
Relative percent drug loaded in DC Bead LUMI over time ([3]; 480 min, single replicates): 47.3643% and 55.2849% and 56.3673%
Relative percent drug loaded in DC Bead LUMI over time ([3]; 1440 min, single replicates): 46.9195% and 55.3847% and 56.4657%
Relative percent drug loaded in DC Bead LUMI over time ([3]; 2880 min, single replicates): 43.3022% and 55.4842% and 56.5637%
Relative percent drug loaded in DC Bead LUMI over time ([3]; 4320 min, single replicates): 46.6711% and 54.7234% and 55.8141%
Relative percent drug loaded in DC Bead LUMI over time ([3]; 8640 min, single replicates): 45.7549% and 53.8658% and 54.9692%
loading behaviour ([3]; DC Bead LUMI): Fast loading
Relative percent drug loaded (maximum, percent of SO3− available on a molar basis) ([3]; DC Bead LUMI): 57%
Relative percent drug loaded (maximum, percent of SO3− available on a molar basis) ([3]; DC Bead LUMI, listed as DSR-6434): 57.38%
equivalent of drug loaded to sulfonated bead ([3]; DC Bead LUMI, mean ± SD): 0.16 ± 0.02 mM drug/ml beads
Maximum drug loaded ([3]; DC Bead LUMI, mean ± SD, n = 3, base form except Dox (salt form)): 65.95 ± 6.96 mg drug/ml beads
Maximum drug loaded (Triplicate), % ([3]; DC Bead LUMI, single replicates): 50.4129% and 60.3547% and 61.3625%
Drug: sulfonate ([3]; molar ratio at maximum loading, DC Bead LUMI): 0.574
Theoretical maximum loading level based on SO3− contents ([3]; per mL DC Bead LUMI, assuming 1:1 drug to sulfonate): 114.94 mg
removal of drug from beads by repeated washing with deionized water ([4]; DC Bead LUMI): partially removed
aggregation of drug during washing / elution ([4]; deionized water and saline, microscopy): absence of aggregated
release behaviour in saline ([5]; DC Bead LUMI): rapid release
pKa ([6]; read-out: pKa (first, measured)): 4.58
pKa ([6]; read-out: pKa (second, measured)): 8.5
pKa ([6]; read-out: pKa (third, measured)): 9.94
psKa1 ([6]; dielectric constant 56.6): 4.18
psKa2 ([6]; dielectric constant 56.6): 8.14
psKa3 ([6]; dielectric constant 56.6): 10.7073
psKa1 ([6]; dielectric constant 61.4): 4.3
psKa2 ([6]; dielectric constant 61.4): 8.24
psKa3 ([6]; dielectric constant 61.4): 10.5143
psKa1 ([6]; dielectric constant 65.9): 4.39
psKa2 ([6]; dielectric constant 65.9): 8.34
psKa3 ([6]; dielectric constant 65.9): 10.3389
SMILES: CCCCNc1nc(N)c2[nH]c(=O)n(Cc3ccc(OCCN(C)C)nc3)c2n1 [DSR 6434]
release in saline from DC Bead LUMI after multiple washes in deionized water ([5]; 5 min): 11.6669 mg/mL of beads and 21.0618 mg/mL of beads and 12.3038 mg/mL of beads
release in saline from DC Bead LUMI after multiple washes in deionized water ([5]; 15 min): 12.2718 mg/mL of beads and 15.5382 mg/mL of beads and 12.6826 mg/mL of beads
release in saline from DC Bead LUMI after multiple washes in deionized water ([5]; 30 min): 12.9372 mg/mL of beads and 16.3714 mg/mL of beads and 14.5502 mg/mL of beads
release in saline from DC Bead LUMI after multiple washes in deionized water ([5]; 45 min): 13.4518 mg/mL of beads and 17.0028 mg/mL of beads and 14.9641 mg/mL of beads
release in saline from DC Bead LUMI after multiple washes in deionized water ([5]; 60 min): 13.786 mg/mL of beads and 17.7202 mg/mL of beads and 15.5663 mg/mL of beads
release in saline from DC Bead LUMI after multiple washes in deionized water ([5]; 120 min): 14.3607 mg/mL of beads and 18.3129 mg/mL of beads and 16.228 mg/mL of beads
release in saline from DC Bead LUMI after multiple washes in deionized water ([5]; 180 min): 16.0563 mg/mL of beads and 19.309 mg/mL of beads and 16.8971 mg/mL of beads
release in saline from DC Bead LUMI after multiple washes in deionized water ([5]; 240 min): 15.1532 mg/mL of beads and 19.1241 mg/mL of beads and 17.0694 mg/mL of beads
release in saline from DC Bead LUMI after multiple washes in deionized water ([5]; 300 min): 15.5267 mg/mL of beads and 19.8574 mg/mL of beads and 17.3452 mg/mL of beads
release in saline from DC Bead LUMI after multiple washes in deionized water ([5]; 360 min): 16.1146 mg/mL of beads and 19.776 mg/mL of beads and 18.2574 mg/mL of beads
release in saline from DC Bead LUMI after multiple washes in deionized water ([5]; 420 min): 15.8596 mg/mL of beads and 19.8188 mg/mL of beads and 17.9345 mg/mL of beads
release in saline from DC Bead LUMI after multiple washes in deionized water ([5]; 480 min): 16.4167 mg/mL of beads and 20.0149 mg/mL of beads and 17.9173 mg/mL of beads
release in saline from DC Bead LUMI after multiple washes in deionized water ([5]; 1440 min): 16.847 mg/mL of beads and 20.6066 mg/mL of beads and 18.2918 mg/mL of beads
release in saline from DC Bead LUMI after multiple washes in deionized water ([5]; 2880 min): 17.1212 mg/mL of beads and 20.6727 mg/mL of beads and 18.4291 mg/mL of beads
release in saline from DC Bead LUMI after multiple washes in deionized water ([5]; 4320 min): 17.0504 mg/mL of beads and 20.4416 mg/mL of beads and 18.5897 mg/mL of beads
release in saline from DC Bead LUMI after multiple washes in deionized water ([5]; 8640 min): 16.3092 mg/mL of beads and 19.4828 mg/mL of beads and 17.2615 mg/mL of beads
